Common to all, as to type: physicochemical
The nature of series [1]: Miscibility of alkyl ketal esters with water. The conditions noted are these: for miscibility with water: miscibility assessed at 25° C unless stated otherwise; for miscible in water to the extent of: parts of ester, balance to 100 parts is water (1 per 99, 2.5 in 97.5, 5 per 95). On the procedure: (§1) Unless stated otherwise, miscibility is assessed at 25° C.
Series [2] can be described thus: Miscibility of alkyl ketal esters with organic compounds. The settings on record: parts of the organic compound in 80 parts of the alkyl ketal ester; organic compounds as listed in the block. Here is the method: as §1
The nature of series [3]: Compatibility between waxes and alkyl ketal esters (melt, cool to room temperature). On the procedure:
Compatibility between various waxes and the alkyl ketal esters was first determined as detailed below. Table 10 below details the fragrant formulations for 10 different candles (Examples 116-125) that contain the fragrant composition.
Beeswax and Et-LGK were weighed into a vessel in a 50/50 weight ratio and heated to 80° C. to form a uniform molten mixture.
Gulf Wax brand of household paraffin wax for canning and candlemaking (distributed by Royal Oak Enterprises) was used in these experiments.

A short description of series [4]: Dissolution of vanillin in alkyl ketal esters. On the procedure:
[…] […] Dissolution is much quicker at 80° C.
Vanillin was dissolved at 25% solids by weight in Et-LPK with slight heating (80° C.).

Series [5] in a line: Compatibility between waxes and alkyl ketal esters (melt, cool to room temperature). The settings on record: 25/75 weight ratio of Et-LGK to beeswax, 80° C, cooled.
Where [6] appears, read: NatureWax C-3 / ester 90/10 weight ratio, 80° C, cooled.
Where [7] appears, read: beeswax / ester 50/50 weight ratio, melted at 80° C, cooled to room temperature.
Where [8] appears, read: candelilla wax / ester 50/50 weight ratio, 120° C, cooled.
The mark [9] stands for this setting: carnauba wax / ester 50/50 weight ratio, 120° C, cooled.
Where [10] appears, read: paraffin wax / ester 75/25 weight ratio, 80° C, cooled to room temperature.
Setting [11] is: NatureWax C-1 / ester 90/10 weight ratio, 80° C, cooled.
[12] abbreviates: NatureWax P-1 / ester 75/25 weight ratio, 80° C, cooled.
Where [13] appears, read: paraffin wax / ester 50/50 weight ratio, 80° C, cooled to room temperature.
Where [14] appears, read: stearic acid / ester 50/50 weight ratio, 80° C, cooled to room temperature.
[15] abbreviates: vanillin at 10% solids by weight in the ester, room temperature.

Consider `CCOC(=O)CC1(C)OCC(CO)O1` (stereo not shown) [Et-AcAcGK], for which, in series [1], the miscibility with water entry is on record as “miscible with water in all proportions”.

As to `COC(=O)CC1(C)OCC(CO)O1` (stereo not shown) [Me-AcAcGK], the miscibility with water result in series [1] is on record as “miscible with water in all proportions”.

As for `CCCCOC(=O)CCC1(C)OCC(CO)O1` (stereo not shown) [Bu-LGK, glycerol ketal of butyl levulinate], in series [1], the “miscible in water to the extent of” value is recorded as 1 parts. In series [2], the “dissolves or is miscible with organic compounds to the extent of” value (shortened to “dissolves or is miscible”) was “at least 20 parts”. For the same compound, the layers upon cooling entry in series [3] (NatureWax C-1 / ester 50/50 weight ratio, 80° C, cooled) is reported as “single homogenous wax layer”; in series [3] (setting [6]), “single homogenous wax layer”; in series [3] (NatureWax P-1 / ester 50/50 weight ratio, 80° C, cooled), “single homogenous wax layer”; in series [3] (setting [7]), “single homogenous wax layer”; in series [3] (setting [8]) it was “single homogenous wax layer”; in series [3] (setting [9]), “single homogenous wax layer”. For the same compound, in series [3] (setting [10]), the layers upon cooling result is given as “Two layers formed”. Moreover, the dissolution of vanillin result in series [4] (vanillin at 25% solids by weight in the ester, room temperature) was “initially appeared to be insoluble but over the course of five days, the vanillin dissolved, resulting in a clear uniform mixture”.

Turning to `CCCOC(=O)CCC1(C)OCC(CO)O1` (stereo not shown) [n-propyl-LGK], the “miscible in water to the extent of” value in series [1] is 1 parts.

For `CCOC(=O)CCC1(C)OCC(C)O1` (stereo not shown) [Et-LPK, propylene glycol ketal of ethyl levulinate], in series [1], the “miscible in water to the extent of” value is given as 2.5 parts. Besides, the “dissolves or is miscible” value in series [2] is listed as “at least 20 parts”. Further, the layers upon cooling entry in series [3] (setting [11]), in series [3] (setting [6]), in series [3] (setting [12]), in series [3] (setting [7]), in series [3] (setting [8]) and in series [3] (setting [9]) was “single homogenous wax layer” throughout. Also, the layers upon cooling entry in series [3] (setting [13]), in series [3] (setting [10]) and in series [3] (setting [14]) was “single homogenous wax layer” each time. Moreover, the dissolution of vanillin result in series [4] (setting [15]) was “clear uniform mixture”; in series [4] (vanillin at 25% solids by weight in the ester, slight heating (80° C)) it was “clear uniform solutions hot and stayed as a clear uniform mixture at room temperature initially”. Besides, the “precipitation of vanillin on standing” value in series [4] (vanillin at 25% solids by weight, dissolved at 80° C, then room temperature) is recorded as “Within an hour, signs of precipitation at room temperature appeared”.

As to `CCOC(=O)CCC1(C)OCC(CO)O1` (stereo not shown) [Et-LGK, glycerol ketal of ethyl levulinate], the miscibility with water result in series [1] is reported as “miscible in water in all proportions”. In addition, the “dissolves or is miscible” value in series [2] is on record as “at least 20 parts”. The layers upon cooling entry in series [3] (25/75 Et-LGK to stearic acid by weight, 80° C, cooled) is listed as “single homogenous wax layer”; in series [3] (setting [11]) it was “single homogenous wax layer”; in series [3] (setting [6]), “single homogenous soft wax layer”; in series [3] (setting [12]), “single homogenous wax layer”; in series [3] (setting [7]), “Two layers formed”; in series [3] (candelilla wax / ester 75/25 weight ratio, 120° C, cooled to room temperature) it was “Two layers formed”. Further, the layers upon cooling entry is listed as “single homogenous wax layer” in series [3] (candelilla wax / ester 90/10 weight ratio, 120° C, cooled); “Two layers formed” in series [3] (setting [9]); “single homogenous wax layer” in series [3] (carnauba wax / ester 75/25 weight ratio, 120° C, cooled); “Two layers formed” in series [3] (setting [13]); “single homogenous wax layer” in series [3] (paraffin wax / ester 90/10 weight ratio, 80° C, cooled to room temperature); “Two layers formed” in series [3] (setting [14]). Also, in series [5], the layers upon cooling result was “single homogenous wax layer”. Moreover, the dissolution of vanillin result in series [4] (setting [15]) is on record as “clear uniform mixture”.

As to `CCCCOC(=O)CCC1(C)OCC(C)O1` (stereo not shown) [n-butyl-LPK], in series [2], the “dissolves or is miscible” value was “at least 20 parts”.

For `CCOC(=O)CCC1(C)OCCO1` [ethyl-LEK], the “miscible in water to the extent of” value in series [1] is given as 5 parts.

Regarding `COC(=O)CCC1(C)OCC(CO)O1` (stereo not shown) [methyl-LGK], in series [1], the miscibility with water result is given as “miscible with water in all proportions”.

Values taken from US9301910B2, “Fragrant formulations, methods of manufacture thereof and articles comprising the same” (GFBiochemicals Limited, priority 2010, dated 2016).
